Experimental data published in patent US11117892B2, “Pyrrolo-pyridine derivative compound, method for preparing same, and pharmaceutical composition containing same as active ingredient for prevention or treatment of protein kinase-related diseases” (DAEGU-GYEONGBUK MEDICAL INNOVATION FOUNDATION, priority 2017, dated 2021).
Read-outs that look alike come from different tables or passages of the source.

Experiments:
Experiment in all cases: scanMAX Kinase assay panel
Type in all cases: binding
EGFR(L747-T751del, Sins) = EGFR(L747-T751del, Sins) (Homo sapiens (Human), UniProt P00533, DEL747-751/INS746S); conditions: read-out: % control
Experimental: (§1) DiscoverX Co. was asked to measure the enzyme (kinase) selectivity, and the experiment was performed using scanMAX™ Kinase assay panel.
(§2) (Example Compound−Positive Control)/(Negative Control−Positive Control)×100 [Equation 1]
(§3) Herein, the positive control indicates the compound showing the % control of 0%, and the negative control indicates DMSO showing the % control of 100%.

WNK3 = WNK3 (Homo sapiens (Human), UniProt Q9BYP7); conditions: read-out: % control
Experimental: as §1, §2, §3

LYN = LYN (Homo sapiens (Human), UniProt P07948); conditions: read-out: % control
Experimental: as §1, §2, §3

SNARK = SNARK (Homo sapiens (Human), UniProt Q9H093); conditions: read-out: % control
Experimental: as §1, §2, §3

MAP4K5 = MAP4K5 (Homo sapiens (Human), UniProt Q9Y4K4); conditions: read-out: % control
MAP4K5, sequence (Q9Y4K4 whole entry): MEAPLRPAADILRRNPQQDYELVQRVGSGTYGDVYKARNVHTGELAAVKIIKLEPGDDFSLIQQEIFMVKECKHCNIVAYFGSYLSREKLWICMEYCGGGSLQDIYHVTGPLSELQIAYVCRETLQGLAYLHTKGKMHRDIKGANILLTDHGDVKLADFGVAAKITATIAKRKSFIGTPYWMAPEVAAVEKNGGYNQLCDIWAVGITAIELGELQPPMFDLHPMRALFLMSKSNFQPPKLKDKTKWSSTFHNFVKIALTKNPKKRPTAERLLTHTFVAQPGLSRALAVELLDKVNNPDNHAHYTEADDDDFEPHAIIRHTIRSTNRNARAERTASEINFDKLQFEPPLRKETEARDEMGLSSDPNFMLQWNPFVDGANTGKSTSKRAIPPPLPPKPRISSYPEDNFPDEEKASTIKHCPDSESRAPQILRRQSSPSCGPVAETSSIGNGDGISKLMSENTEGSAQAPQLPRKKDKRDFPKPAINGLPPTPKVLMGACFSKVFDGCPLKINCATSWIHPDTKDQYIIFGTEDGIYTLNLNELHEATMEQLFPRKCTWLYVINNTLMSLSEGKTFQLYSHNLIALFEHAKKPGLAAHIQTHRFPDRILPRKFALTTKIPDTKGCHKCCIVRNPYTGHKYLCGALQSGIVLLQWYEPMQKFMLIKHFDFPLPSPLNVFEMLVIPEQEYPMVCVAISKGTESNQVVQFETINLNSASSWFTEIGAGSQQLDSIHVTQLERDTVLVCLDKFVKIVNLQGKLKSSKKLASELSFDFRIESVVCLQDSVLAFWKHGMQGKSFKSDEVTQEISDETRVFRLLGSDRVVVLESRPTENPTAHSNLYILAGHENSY
Experimental: as §1, §2, §3

AAK1 = AAK1 (Homo sapiens (Human), UniProt Q2M2I8); conditions: read-out: % control
Experimental: as §1, §2, §3

CSF1R-autoinhibited = CSF1R-autoinhibited (Homo sapiens (Human), UniProt P07333); conditions: read-out: % control
Experimental: as §1, §2, §3

MEK2 = MEK2 (Homo sapiens (Human), UniProt P36507); conditions: read-out: % control
Experimental: as §1, §2, §3

PRKCH = PRKCH (Homo sapiens (Human), UniProt P24723); conditions: read-out: % control
Experimental: as §1, §2, §3

FLT3(ITD, F691L) = conditions: 1 uM
Experimental: as §1, §2, §3

PAK4 = PAK4 (Homo sapiens (Human), UniProt O96013); conditions: read-out: % control
Experimental: as §1, §2, §3

BRSK2 = BRSK2 (Homo sapiens (Human), UniProt Q8IWQ3); conditions: read-out: % control
Experimental: as §1, §2, §3

WEE1 = WEE1 (Homo sapiens (Human), UniProt P30291); conditions: read-out: % control
Experimental: as §1, §2, §3

EPHA8 = EPHA8 (Homo sapiens (Human), UniProt P29322); conditions: read-out: % control
Experimental: as §1, §2, §3

PIP5K2B = PIP5K2B (Homo sapiens (Human), UniProt P78356); conditions: read-out: % control
Experimental: as §1, §2, §3

FES = FES (Homo sapiens (Human), UniProt P07332); conditions: read-out: % control
Experimental: as §1, §2, §3

LRRK2(G2019S) = LRRK2(G2019S) (Homo sapiens (Human), UniProt Q5S007, G2019S); conditions: read-out: % control
LRRK2(G2019S), sequence (Q5S007 whole entry G2019S): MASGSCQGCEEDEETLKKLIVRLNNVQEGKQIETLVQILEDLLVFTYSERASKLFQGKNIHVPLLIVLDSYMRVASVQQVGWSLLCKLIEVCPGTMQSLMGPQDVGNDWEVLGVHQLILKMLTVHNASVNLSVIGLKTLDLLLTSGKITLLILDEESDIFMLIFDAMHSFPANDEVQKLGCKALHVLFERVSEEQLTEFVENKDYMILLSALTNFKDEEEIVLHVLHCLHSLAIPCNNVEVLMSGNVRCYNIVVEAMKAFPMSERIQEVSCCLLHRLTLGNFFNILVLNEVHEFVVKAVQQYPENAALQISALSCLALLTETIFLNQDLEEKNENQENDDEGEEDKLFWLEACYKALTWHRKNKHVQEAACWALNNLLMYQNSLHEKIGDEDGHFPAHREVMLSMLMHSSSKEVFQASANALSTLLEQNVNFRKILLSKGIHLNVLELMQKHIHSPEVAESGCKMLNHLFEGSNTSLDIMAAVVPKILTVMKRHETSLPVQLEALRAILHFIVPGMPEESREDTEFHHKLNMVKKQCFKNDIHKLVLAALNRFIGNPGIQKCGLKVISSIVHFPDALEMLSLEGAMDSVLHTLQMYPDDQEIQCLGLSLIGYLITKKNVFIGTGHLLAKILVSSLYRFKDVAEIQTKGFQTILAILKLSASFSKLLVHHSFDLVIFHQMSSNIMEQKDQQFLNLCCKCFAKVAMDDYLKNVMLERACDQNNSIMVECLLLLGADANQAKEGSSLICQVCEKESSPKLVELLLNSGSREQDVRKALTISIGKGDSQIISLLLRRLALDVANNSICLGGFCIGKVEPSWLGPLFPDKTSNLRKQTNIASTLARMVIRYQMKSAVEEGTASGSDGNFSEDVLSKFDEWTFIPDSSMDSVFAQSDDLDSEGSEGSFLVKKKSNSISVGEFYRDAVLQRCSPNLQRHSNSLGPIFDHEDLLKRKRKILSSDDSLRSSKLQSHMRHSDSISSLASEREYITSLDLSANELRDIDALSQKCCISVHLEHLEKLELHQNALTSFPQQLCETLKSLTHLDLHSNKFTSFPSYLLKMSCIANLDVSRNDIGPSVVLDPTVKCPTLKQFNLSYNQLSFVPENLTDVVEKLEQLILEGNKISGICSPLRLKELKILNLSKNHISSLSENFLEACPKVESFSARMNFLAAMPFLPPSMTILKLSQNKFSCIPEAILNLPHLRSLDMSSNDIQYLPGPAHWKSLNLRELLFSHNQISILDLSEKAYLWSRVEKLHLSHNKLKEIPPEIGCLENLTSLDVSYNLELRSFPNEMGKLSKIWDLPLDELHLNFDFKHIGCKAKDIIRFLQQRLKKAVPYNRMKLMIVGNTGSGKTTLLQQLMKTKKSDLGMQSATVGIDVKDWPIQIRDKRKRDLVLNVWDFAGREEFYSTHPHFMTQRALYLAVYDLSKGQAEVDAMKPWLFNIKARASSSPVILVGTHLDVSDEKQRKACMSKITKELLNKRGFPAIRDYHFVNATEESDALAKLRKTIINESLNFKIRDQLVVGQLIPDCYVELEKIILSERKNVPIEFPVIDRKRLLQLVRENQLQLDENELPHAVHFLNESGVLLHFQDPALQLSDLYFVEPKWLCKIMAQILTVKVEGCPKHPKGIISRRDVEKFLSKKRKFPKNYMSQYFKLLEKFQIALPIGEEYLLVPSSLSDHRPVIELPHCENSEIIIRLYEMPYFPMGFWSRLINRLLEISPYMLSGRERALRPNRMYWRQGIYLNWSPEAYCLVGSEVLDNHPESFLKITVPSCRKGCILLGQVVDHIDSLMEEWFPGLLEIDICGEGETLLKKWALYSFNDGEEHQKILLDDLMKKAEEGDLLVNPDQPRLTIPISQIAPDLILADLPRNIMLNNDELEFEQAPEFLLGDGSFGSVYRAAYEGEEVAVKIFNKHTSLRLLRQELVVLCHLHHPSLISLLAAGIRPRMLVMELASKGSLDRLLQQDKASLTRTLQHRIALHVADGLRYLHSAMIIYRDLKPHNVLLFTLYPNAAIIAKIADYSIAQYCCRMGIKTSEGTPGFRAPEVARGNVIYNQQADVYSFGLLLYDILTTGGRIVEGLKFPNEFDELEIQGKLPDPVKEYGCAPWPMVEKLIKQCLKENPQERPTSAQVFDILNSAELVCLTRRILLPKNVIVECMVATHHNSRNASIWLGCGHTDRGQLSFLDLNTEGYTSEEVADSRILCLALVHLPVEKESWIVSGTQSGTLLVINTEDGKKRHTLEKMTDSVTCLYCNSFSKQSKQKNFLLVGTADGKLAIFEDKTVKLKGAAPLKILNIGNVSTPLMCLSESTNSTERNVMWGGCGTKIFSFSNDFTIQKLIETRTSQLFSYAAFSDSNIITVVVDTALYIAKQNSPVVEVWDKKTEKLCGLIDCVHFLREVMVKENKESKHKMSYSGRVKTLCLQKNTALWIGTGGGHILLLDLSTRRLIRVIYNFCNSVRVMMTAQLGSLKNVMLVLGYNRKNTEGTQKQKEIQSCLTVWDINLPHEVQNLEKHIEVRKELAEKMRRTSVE
Experimental: as §1, §2, §3

CDK4-cyclinD1 = CDK4-cyclinD1 (Homo sapiens (Human), UniProt P11802); conditions: read-out: % control
Experimental: as §1, §2, §3

NEK10 = NEK10 (Homo sapiens (Human), UniProt Q6ZWH5); conditions: read-out: % control
Experimental: as §1, §2, §3

LZK = LZK (Homo sapiens (Human), UniProt O43283); conditions: read-out: % control
Experimental: as §1, §2, §3

MST3 = MST3 (Homo sapiens (Human), UniProt Q9Y6E0); conditions: read-out: % control
Experimental: as §1, §2, §3

TLK2 = TLK2 (Homo sapiens (Human), UniProt Q86UE8); conditions: read-out: % control
Experimental: as §1, §2, §3

CDK4 = CDK4 (Homo sapiens (Human), UniProt P11802); conditions: read-out: % control
Experimental: as §1, §2, §3

HIPK2 = HIPK2 (Homo sapiens (Human), UniProt Q9H2X6); conditions: read-out: % control
HIPK2, sequence (Q9H2X6 whole entry): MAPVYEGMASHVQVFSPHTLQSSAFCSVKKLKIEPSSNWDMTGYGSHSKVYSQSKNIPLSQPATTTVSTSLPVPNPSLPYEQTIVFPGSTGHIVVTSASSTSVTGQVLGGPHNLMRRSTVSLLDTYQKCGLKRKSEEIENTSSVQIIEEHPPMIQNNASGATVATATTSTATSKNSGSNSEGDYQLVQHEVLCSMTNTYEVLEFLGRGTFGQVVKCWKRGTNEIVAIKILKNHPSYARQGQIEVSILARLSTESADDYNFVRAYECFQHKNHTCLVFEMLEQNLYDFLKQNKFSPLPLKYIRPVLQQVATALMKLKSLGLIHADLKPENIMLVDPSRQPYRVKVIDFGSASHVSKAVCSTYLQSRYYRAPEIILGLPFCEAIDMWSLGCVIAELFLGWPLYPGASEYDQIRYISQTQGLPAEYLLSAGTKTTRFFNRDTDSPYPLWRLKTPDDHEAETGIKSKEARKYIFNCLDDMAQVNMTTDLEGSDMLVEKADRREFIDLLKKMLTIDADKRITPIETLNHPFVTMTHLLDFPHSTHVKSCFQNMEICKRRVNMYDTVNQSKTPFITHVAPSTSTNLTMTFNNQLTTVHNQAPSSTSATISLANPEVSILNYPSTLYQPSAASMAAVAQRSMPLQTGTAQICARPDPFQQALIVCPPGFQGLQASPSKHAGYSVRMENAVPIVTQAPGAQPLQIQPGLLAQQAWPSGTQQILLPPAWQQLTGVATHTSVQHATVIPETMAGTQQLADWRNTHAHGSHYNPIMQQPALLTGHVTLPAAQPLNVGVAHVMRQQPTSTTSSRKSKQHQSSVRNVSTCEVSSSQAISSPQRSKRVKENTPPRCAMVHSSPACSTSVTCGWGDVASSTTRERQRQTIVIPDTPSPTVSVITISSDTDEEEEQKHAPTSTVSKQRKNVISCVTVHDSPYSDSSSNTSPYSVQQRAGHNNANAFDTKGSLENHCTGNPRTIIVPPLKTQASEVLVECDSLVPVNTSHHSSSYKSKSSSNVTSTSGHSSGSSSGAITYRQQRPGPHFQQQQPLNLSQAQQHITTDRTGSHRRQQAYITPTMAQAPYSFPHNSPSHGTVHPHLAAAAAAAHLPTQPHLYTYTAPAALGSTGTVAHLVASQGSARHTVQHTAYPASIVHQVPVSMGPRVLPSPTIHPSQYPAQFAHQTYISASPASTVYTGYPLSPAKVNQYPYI
Experimental: as §1, §2, §3

CAMK2A = CAMK2A (Homo sapiens (Human), UniProt Q9UQM7); conditions: read-out: % control
Experimental: as §1, §2, §3

TGFBR2 = TGFBR2 (Homo sapiens (Human), UniProt P37173); conditions: read-out: % control
TGFBR2, sequence (P37173 23-567): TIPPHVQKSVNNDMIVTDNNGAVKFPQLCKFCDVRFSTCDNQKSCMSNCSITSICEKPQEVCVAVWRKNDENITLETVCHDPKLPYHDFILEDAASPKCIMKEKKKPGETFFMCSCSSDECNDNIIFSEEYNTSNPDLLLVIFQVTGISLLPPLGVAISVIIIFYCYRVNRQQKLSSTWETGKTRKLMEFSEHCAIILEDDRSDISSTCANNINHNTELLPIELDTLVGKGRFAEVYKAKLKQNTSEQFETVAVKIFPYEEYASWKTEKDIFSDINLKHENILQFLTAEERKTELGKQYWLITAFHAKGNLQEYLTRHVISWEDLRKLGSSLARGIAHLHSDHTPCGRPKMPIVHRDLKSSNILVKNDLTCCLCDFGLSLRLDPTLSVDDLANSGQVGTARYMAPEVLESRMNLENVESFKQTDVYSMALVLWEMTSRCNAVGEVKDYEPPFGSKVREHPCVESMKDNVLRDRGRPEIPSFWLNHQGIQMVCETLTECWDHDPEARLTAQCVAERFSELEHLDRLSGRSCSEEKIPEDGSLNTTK
Experimental: as §1, §2, §3

ALK = ALK (Homo sapiens (Human), UniProt Q9UM73); conditions: read-out: % control
Experimental: as §1, §2, §3

EPHA3 = EPHA3 (Homo sapiens (Human), UniProt P29320); conditions: read-out: % control
Experimental: as §1, §2, §3

ACVR1B = ACVR1B (Homo sapiens (Human), UniProt P36896); conditions: read-out: % control
Experimental: as §1, §2, §3

IRAK1 = IRAK1 (Homo sapiens (Human), UniProt P51617); conditions: read-out: % control
Experimental: as §1, §2, §3

BIKE = BIKE (Homo sapiens (Human), UniProt Q9NSY1); conditions: read-out: % control
Experimental: as §1, §2, §3

MAK = MAK (Homo sapiens (Human), UniProt P20794); conditions: read-out: % control
Experimental: as §1, §2, §3

PRKCD = PRKCD (Homo sapiens (Human), UniProt Q05655); conditions: read-out: % control
Experimental: as §1, §2, §3

WNK1 = WNK1 (Homo sapiens (Human), UniProt Q9H4A3); conditions: read-out: % control
Experimental: as §1, §2, §3

FGFR2 = FGFR2 (Homo sapiens (Human), UniProt P21802); conditions: read-out: % control
Experimental: as §1, §2, §3

GSK3A = GSK3A (Homo sapiens (Human), UniProt P49840); conditions: read-out: % control
Experimental: as §1, §2, §3

HASPIN = HASPIN (Homo sapiens (Human), UniProt Q8TF76); conditions: read-out: % control
Experimental: as §1, §2, §3

[1] = molecular target: RSK3(Kin.Dom.2-C-terminal) (Homo sapiens (Human), UniProt Q15349); conditions: read-out: % control
Experimental: as §1, §2, §3

CSNK1G2 = CSNK1G2 (Homo sapiens (Human), UniProt P78368); conditions: read-out: % control
Experimental: as §1, §2, §3

Structure (SMILES)	remaining binding at 1 µM (EGFR(L747-T751del, Sins))	remaining binding at 1 µM (WNK3)	remaining binding at 1 µM (LYN)	remaining binding at 1 µM (SNARK)	remaining binding at 1 µM (MAP4K5)	remaining binding at 1 µM (AAK1)	remaining binding at 1 µM (CSF1R-autoinhibited)	remaining binding at 1 µM (MEK2)	remaining binding at 1 µM (PRKCH)	% control (FLT3(ITD, F691L))	remaining binding at 1 µM (PAK4)	remaining binding at 1 µM (BRSK2)	remaining binding at 1 µM (WEE1)	remaining binding at 1 µM (EPHA8)	remaining binding at 1 µM (PIP5K2B)	remaining binding at 1 µM (FES)	remaining binding at 1 µM (LRRK2(G2019S))	remaining binding at 1 µM (CDK4-cyclinD1)	remaining binding at 1 µM (NEK10)	remaining binding at 1 µM (LZK)	other results
CCNc1cc(Nc2ccc(C(=O)N3CCC(N4CCOCC4)CC3)cc2OC)nc2[nH]cc(C(F)(F)F)c12 [Example 57, (4-((4-(ethylamino)-3-(trifluoromethyl)-1H-pyrrolo[2,3-b]pyridin-6-yl)amino)-3-methoxyphenyl) (4-morpholinopiperidin-1-yl)methanone]	97%	100%	100%	100%	100%	54%	83%	100%	99%	84%	93%	79%	100%	100%	100%	87%	27%	95%	100%	100%	remaining binding at 1 µM (MST3): 84%; remaining binding at 1 µM (TLK2): 88%; remaining binding at 1 µM (CDK4): 100%; remaining binding at 1 µM (HIPK2): 100%; remaining binding at 1 µM (CAMK2A): 72%; remaining binding at 1 µM (TGFBR2): 97%; remaining binding at 1 µM (ALK): 2.5%; remaining binding at 1 µM (EPHA3): 100%; remaining binding at 1 µM (ACVR1B): 82%; remaining binding at 1 µM (IRAK1): 100%; remaining binding at 1 µM (BIKE): 85%; remaining binding at 1 µM (MAK): 95%; remaining binding at 1 µM (PRKCD): 87%; remaining binding at 1 µM (WNK1): 100%; remaining binding at 1 µM (FGFR2): 72%; remaining binding at 1 µM (GSK3A): 90%; remaining binding at 1 µM (HASPIN): 70%; remaining binding at 1 µM [1]: 82%; remaining binding at 1 µM (CSNK1G2): 86%
CCNc1cc(Nc2ccc(C(=O)N3CCC(N4CCOCC4)CC3)cc2OC)nc2[nH]cc(C#N)c12 [Example 18, 4-(ethylamino)-6-((2-methoxy-4-(4-morpholinopiperidine-1-carbonyl)phenyl)amino)-1H-pyrrolo[2,3-b]pyridine-3-carbonitrile]	100%	82%	90%	57%	99%	69%	51%	26%	95%	46%	88%	96%	100%	85%	87%	89%	0.6%	100%	73%	100%	remaining binding at 1 µM (MST3): 88%; remaining binding at 1 µM (TLK2): 98%; remaining binding at 1 µM (CDK4): 100%; remaining binding at 1 µM (HIPK2): 68%; remaining binding at 1 µM (CAMK2A): 72%; remaining binding at 1 µM (TGFBR2): 100%; remaining binding at 1 µM (ALK): 2.7%; remaining binding at 1 µM (EPHA3): 93%; remaining binding at 1 µM (ACVR1B): 88%; remaining binding at 1 µM (IRAK1): 79%; remaining binding at 1 µM (BIKE): 90%; remaining binding at 1 µM (MAK): 92%; remaining binding at 1 µM (PRKCD): 75%; remaining binding at 1 µM (WNK1): 93%; remaining binding at 1 µM (FGFR2): 85%; remaining binding at 1 µM (GSK3A; GSK3A, 1 uM): 100%; remaining binding at 1 µM (HASPIN): 7.6%; remaining binding at 1 µM [1]: 12%; remaining binding at 1 µM (CSNK1G2): 27%
